Reference: PubChem BioAssay AID330 (DTP/NCI, 2004)
Where “and” joins values, the source holds several entries; their conditions need not be identical. Equal values may be shown once. Inconclusive results and toxic doses are left out.

System: P388 leukemia ip, CD2F1 mice, survival T/C
Assay: NCI In Vivo Anticancer Drug Screen. Data for tumor model P388 Leukemia (intraperitoneal) in CD2F1 (CDF1) mice
Conditions: endpoint: median survival time, higher = longer survival
Outline: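 Mice carrying the transplanted tumor received test compound or vehicle. Survival was recorded in each group, and the value is the treated-group measurement divided by that of the vehicle-treated control group.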

[1] = dose: 100.0 mg/kg/injection, schedule: Q01DX009 (ip), vehicle: saline
[2] = dose: 200.0 mg/kg/injection, schedule: Q01DX009 (ip), vehicle: saline
[3] = dose: 50.0 mg/kg/injection, schedule: Q01DX009 (ip), vehicle: Klucel (hydroxypropylcellulose) (HPC)
[4] = dose: 100.0 mg/kg/injection, schedule: Q01DX009 (ip), vehicle: Klucel (hydroxypropylcellulose) (HPC)
[5] = dose: 200.0 mg/kg/injection, schedule: Q01DX009 (ip), vehicle: Klucel (hydroxypropylcellulose) (HPC)
[6] = dose: 25.0 mg/kg/injection, schedule: Q01DX001 (ip), vehicle: Klucel (hydroxypropylcellulose) (HPC)
[7] = dose: 50.0 mg/kg/injection, schedule: Q01DX001 (ip), vehicle: Klucel (hydroxypropylcellulose) (HPC)
[8] = dose: 60.0 mg/kg/injection, schedule: Q01DX005 (ip), vehicle: Klucel (hydroxypropylcellulose) (HPC)
[9] = dose: 120.0 mg/kg/injection, schedule: Q01DX005 (ip), vehicle: Klucel (hydroxypropylcellulose) (HPC)
[10] = dose: 240.0 mg/kg/injection, schedule: Q01DX005 (ip), vehicle: Klucel (hydroxypropylcellulose) (HPC)
[11] = dose: 50.0 mg/kg/injection, schedule: Q01DX009 (ip), vehicle: saline
[12] = dose: 60.0 mg/kg/injection, schedule: Q01DX005 (ip), vehicle: saline with Tween-80
[13] = dose: 120.0 mg/kg/injection, schedule: Q01DX005 (ip), vehicle: saline with Tween-80
[14] = dose: 240.0 mg/kg/injection, schedule: Q01DX005 (ip), vehicle: saline with Tween-80
[15] = dose: 50.0 mg/kg/injection, schedule: Q01DX009 (ip), vehicle: saline with Tween-80
[16] = dose: 100.0 mg/kg/injection, schedule: Q01DX009 (ip), vehicle: saline with Tween-80
[17] = dose: 25.0 mg/kg/injection, schedule: Q01DX009 (ip), vehicle: saline with Tween-80
[18] = dose: 200.0 mg/kg/injection, schedule: Q01DX009 (ip), vehicle: saline with Tween-80
[19] = dose: 100.0 mg/kg/injection, schedule: Q01DX001 (ip), vehicle: Klucel (hydroxypropylcellulose) (HPC)

## Cc1cnc(C(N)=O)c(=O)[nH]1
[1]
  T/C: 95 % of control
dose: 100.0 mg/kg/injection, schedule: Q04DX003 (ip), vehicle: saline
  T/C: 105 % of control
[2]
  T/C: 100 % of control
dose: 200.0 mg/kg/injection, schedule: Q04DX003 (ip), vehicle: saline
  T/C: 100 % of control
dose: 400.0 mg/kg/injection, schedule: Q01DX009 (ip), vehicle: saline
  T/C: 100 % of control
dose: 400.0 mg/kg/injection, schedule: Q04DX003 (ip), vehicle: saline
  T/C: 100 % of control

## c1ccc2c(c1)Cc1cc3ccccc3nc1-2
dose: 25.0 mg/kg/injection, schedule: Q01DX005 (ip), vehicle: Klucel (hydroxypropylcellulose) (HPC)
  T/C: 94 % of control
dose: 25.0 mg/kg/injection, schedule: Q01DX009 (ip), vehicle: Klucel (hydroxypropylcellulose) (HPC)
  T/C: 94 % of control
dose: 50.0 mg/kg/injection, schedule: Q01DX005 (ip), vehicle: Klucel (hydroxypropylcellulose) (HPC)
  T/C: 100 % of control
[3]
  T/C: 91 % of control
dose: 100.0 mg/kg/injection, schedule: Q01DX005 (ip), vehicle: Klucel (hydroxypropylcellulose) (HPC)
  T/C: 100 % of control
[4]
  T/C: 106 % of control
dose: 200.0 mg/kg/injection, schedule: Q01DX005 (ip), vehicle: Klucel (hydroxypropylcellulose) (HPC)
  T/C: 97 % of control
[5]
  T/C: 100 % of control

## Cc1nc2sccn2c1C#N
dose: 12.5 mg/kg/injection, schedule: Q01DX001 (ip), vehicle: Klucel (hydroxypropylcellulose) (HPC)
  T/C: 117 % of control
[6]
  T/C: 102 % of control
[7]
  T/C: 102 % of control

## CCN(Cc1c(C)[nH]c2cc(N(C)C)ccc2c1=O)Cc1c(C)[nH]c2cc(N(C)C)ccc2c1=O
[8]
  T/C: 90 % of control
[9]
  T/C: 92 % of control
[10]
  T/C: 91 % of control

## OC1CC2CC1CC2O (centres undefined)
[11]
  T/C: 101 % of control
[1]
  T/C: 98 % of control
[2]
  T/C: 104 % of control

## C[n+]1c2ccccc2c(N)c2ccccc21
dose: 30.0 mg/kg/injection, schedule: Q04DX002 (ip), vehicle: saline with Tween-80
  T/C: 117 % of control

## c1ccc(Cc2[nH]nc(-c3n[nH]c(Cc4ccccc4)c3-c3ccccc3)c2-c2ccccc2)cc1
[12]
  T/C: 101 % of control
[13]
  T/C: 103 % of control
[14]
  T/C: 102 % of control

## COc1ccc(C(=O)CC2CCCC(CC(=O)c3ccc(OC)cc3)N2C)cc1 (centres undefined)
[15]
  T/C: 100 % of control
[16]
  T/C: 101 % of control

## CC1C(C#N)C(=O)NC(=O)C1C#N (centres undefined)
[11]
  T/C: 99 % of control
[1]
  T/C: 100 % of control
[2]
  T/C: 100 % of control

## Cc1cc(N)ccc1Cl
[17]
  T/C: 97 % of control
[15]
  T/C: 110 % of control
[16]
  T/C: 93 % of control
[18]
  T/C: 96 % of control

## O=[N+]([O-])c1cccc(/C=C/C=C/c2ccc(Cl)c(S(=O)(=O)F)c2)c1
[16]
  T/C: 86 % of control
[18]
  T/C: 86 % of control
dose: 400.0 mg/kg/injection, schedule: Q01DX009 (ip), vehicle: saline with Tween-80
  T/C: 86 % of control

## COc1nc(Cl)nc(OC)n1
[18]
  T/C: 86 % of control

## COc1ccc(-n2c(=O)c(N=Nc3ccc(S(=O)(=O)N=C(N)N)cc3)c(O)n(-c3ccc(Cl)cc3)c2=S)cc1
dose: 100.0 mg/kg/injection, schedule: Q01DX002 (ip), vehicle: Klucel (hydroxypropylcellulose) (HPC)
  T/C: 99 % of control
dose: 200.0 mg/kg/injection, schedule: Q01DX002 (ip), vehicle: Klucel (hydroxypropylcellulose) (HPC)
  T/C: 107 % of control
dose: 400.0 mg/kg/injection, schedule: Q01DX002 (ip), vehicle: Klucel (hydroxypropylcellulose) (HPC)
  T/C: 106 % of control

## CCCSC(=O)Nc1ccc(Cc2ccc(NC(=O)SCCC)cc2)cc1
[12]
  T/C: 90 % of control
[13]
  T/C: 87 % of control
[14]
  T/C: 99 % of control

## CC(=O)Nc1ccc(/C=C2\C(=O)Nc3ccccc32)cc1
[3]
  T/C: 99 % of control and 91 % of control
[4]
  T/C: 87 % of control and 96 % of control
[5]
  T/C: 89 % of control and 91 % of control

## Cc1ccc(-c2nc3sccn3c2C=O)cc1
[19]
  T/C: 95 % of control
dose: 200.0 mg/kg/injection, schedule: Q01DX001 (ip), vehicle: Klucel (hydroxypropylcellulose) (HPC)
  T/C: 96 % of control
dose: 400.0 mg/kg/injection, schedule: Q01DX001 (ip), vehicle: Klucel (hydroxypropylcellulose) (HPC)
  T/C: 96 % of control

## COc1ccc2c(c1)CCCN2
[17]
  T/C: 105 % of control and 108 % of control
[15]
  T/C: 103 % of control and 108 % of control
[16]
  T/C: 117 % of control

## CC1(C)CC2C=C(C=O)C3(C=O)CC3(C)C2C1 (centres undefined)
dose: 0.78 mg/kg/injection, schedule: Q01DX009 (ip), vehicle: Klucel (hydroxypropylcellulose) (HPC)
  T/C: 96 % of control
dose: 1.56 mg/kg/injection, schedule: Q01DX009 (ip), vehicle: Klucel (hydroxypropylcellulose) (HPC)
  T/C: 112 % of control
dose: 3.12 mg/kg/injection, schedule: Q01DX009 (ip), vehicle: Klucel (hydroxypropylcellulose) (HPC)
  T/C: 111 % of control
dose: 6.25 mg/kg/injection, schedule: Q01DX009 (ip), vehicle: Klucel (hydroxypropylcellulose) (HPC)
  T/C: 111 % of control

## CCC(=O)CC1(C(=O)OC)NC(=S)NC(=O)C1C#N (centres undefined)
[8]
  T/C: 102 % of control
[9]
  T/C: 103 % of control
[10]
  T/C: 100 % of control

## COc1ccc(/C=C2\CCOc3ccc(C)cc3C2=O)cc1
dose: 100.0 mg/kg/injection, schedule: Q04DX003 (ip), vehicle: Klucel (hydroxypropylcellulose) (HPC)
  T/C: 94 % of control
dose: 200.0 mg/kg/injection, schedule: Q04DX003 (ip), vehicle: Klucel (hydroxypropylcellulose) (HPC)
  T/C: 96 % of control
dose: 400.0 mg/kg/injection, schedule: Q04DX003 (ip), vehicle: Klucel (hydroxypropylcellulose) (HPC)
  T/C: 102 % of control

## C[n+]1ccn(Cc2ccc([N+](=O)[O-])cc2)c1
[11]
  T/C: 115 % of control
[1]
  T/C: 102 % of control

## O=C1OC(C2OC(=O)C(=O)C2C(=O)c2ccccc2Cl)C(C(=O)c2ccccc2Cl)C1=O (centres undefined)
dose: 15.0 mg/kg/injection, schedule: Q01DX005 (ip), vehicle: saline + Tween-80 + alcohol
  T/C: 99 % of control
dose: 30.0 mg/kg/injection, schedule: Q01DX005 (ip), vehicle: saline + Tween-80 + alcohol
  T/C: 91 % of control

## CC1=CC2N(C=C1)C(c1ccccc1)=NON2c1cc(C)ccn1 (centres undefined)
dose: 7.5 mg/kg/injection, schedule: Q01DX005 (ip), vehicle: saline with Tween-80
  T/C: 91 % of control
dose: 15.0 mg/kg/injection, schedule: Q01DX005 (ip), vehicle: saline with Tween-80
  T/C: 94 % of control
dose: 30.0 mg/kg/injection, schedule: Q01DX005 (ip), vehicle: saline with Tween-80
  T/C: 91 % of control

## Cc1cc(Cl)cc2c1OCOC2
dose: 50.0 mg/kg/injection, schedule: Q01DX009 (ip), vehicle: acetone
  T/C: 101 % of control
dose: 100.0 mg/kg/injection, schedule: Q01DX009 (ip), vehicle: acetone
  T/C: 102 % of control

## CC(=O)OCC1OC(OC(C)=O)C(N(CCCl)CCCl)C(OC(C)=O)C1OC(C)=O (centres undefined)
dose: 0.31 mg/kg/injection, schedule: Q01DX005 (ip), vehicle: water
  T/C: 151 % of control
dose: 0.62 mg/kg/injection, schedule: Q01DX005 (ip), vehicle: water
  T/C: 151 % of control
dose: 1.25 mg/kg/injection, schedule: Q01DX005 (ip), vehicle: distilled water + Tween-80
  T/C: 181 % of control
dose: 1.25 mg/kg/injection, schedule: Q01DX005 (ip), vehicle: water
  T/C: 177 % of control
dose: 2.5 mg/kg/injection, schedule: Q01DX005 (ip), vehicle: distilled water + Tween-80
  T/C: 216 % of control
dose: 2.5 mg/kg/injection, schedule: Q01DX005 (ip), vehicle: water
  T/C: 213 % of control
dose: 5.0 mg/kg/injection, schedule: Q01DX005 (ip), vehicle: water
  T/C: 110 % of control

## CCCCCCCCCCCCCCCCCCCCCC(=O)Nc1ccn(C2OC(CO)C(O)C2O)c(=O)n1 (centres undefined)
dose: 1.56 mg/kg/injection, schedule: Q01DX009 (ip), vehicle: saline with Tween-80
  T/C: 155 % of control
dose: 3.12 mg/kg/injection, schedule: Q01DX009 (ip), vehicle: saline with Tween-80
  T/C: 198 % of control and 209 % of control
dose: 6.25 mg/kg/injection, schedule: Q01DX009 (ip), vehicle: saline with Tween-80
  T/C: 106 % of control and 206 % of control and 235 % of control
dose: 12.5 mg/kg/injection, schedule: Q01DX009 (ip), vehicle: saline with Tween-80
  T/C: 256 % of control and 309 % of control
[16]
  T/C: 195 % of control

## CC(C)CNC(=O)C(=O)NCC(C)C
[6]
  T/C: 98 % of control
[7]
  T/C: 101 % of control
[19]
  T/C: 101 % of control
